# pIC50: −log10 of the molar value.
# What was measured:
# [1] = biological target: T1, Membrane-associated tyrosine- and threonine-specific cdc2-inhibitory kinase (Homo sapiens) (UniProt Q99640); experiment: Selectivity interaction (Kinase panel (DSF assay)) EUB0001558a PKMYT1
# T1 sequence (whole entry): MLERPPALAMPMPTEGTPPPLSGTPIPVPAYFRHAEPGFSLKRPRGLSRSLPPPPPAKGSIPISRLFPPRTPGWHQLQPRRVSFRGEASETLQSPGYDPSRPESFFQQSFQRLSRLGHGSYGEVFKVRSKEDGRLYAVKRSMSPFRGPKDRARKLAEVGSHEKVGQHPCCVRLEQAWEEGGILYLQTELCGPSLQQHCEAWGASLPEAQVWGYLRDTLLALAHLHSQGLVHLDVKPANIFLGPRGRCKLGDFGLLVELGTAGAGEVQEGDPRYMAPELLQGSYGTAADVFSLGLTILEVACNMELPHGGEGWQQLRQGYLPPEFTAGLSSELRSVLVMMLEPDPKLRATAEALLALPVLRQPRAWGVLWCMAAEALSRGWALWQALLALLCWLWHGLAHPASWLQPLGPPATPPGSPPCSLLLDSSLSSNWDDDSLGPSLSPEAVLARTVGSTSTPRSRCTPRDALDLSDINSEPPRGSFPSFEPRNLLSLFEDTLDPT
# [2] = biological target: Eukaryotic translation initiation factor 2-alpha kinase 1 (Homo sapiens) (UniProt Q9BQI3); experiment: Selectivity interaction (KinomeScan (DiscoverX)) EUB0000229b EIF2AK1; conditions: at 10 µM
# [3] = biological target: Tyrosine-protein kinase receptor UFO (Homo sapiens) (UniProt P30530); experiment: Selectivity interaction (ProQinase) EUB0000171b AXL
# [4] = biological target: Serine/threonine-protein kinase mTOR (Homo sapiens, UniProt P42345); experiment: Selectivity interaction (Kinase panel (antibody-dependent TR-FRET assay, phosphorylation of 4EBP-1 catalyzed by recombinant mTOR)) EUB0000877a MTOR
# [5] = biological target: T2, Protein kinase C epsilon type (Homo sapiens) (UniProt Q02156); experiment: Selectivity interaction (Millipore kinase profiler) EUB0000124b PRKCE; conditions: at 10 µM
# T2 sequence (whole entry): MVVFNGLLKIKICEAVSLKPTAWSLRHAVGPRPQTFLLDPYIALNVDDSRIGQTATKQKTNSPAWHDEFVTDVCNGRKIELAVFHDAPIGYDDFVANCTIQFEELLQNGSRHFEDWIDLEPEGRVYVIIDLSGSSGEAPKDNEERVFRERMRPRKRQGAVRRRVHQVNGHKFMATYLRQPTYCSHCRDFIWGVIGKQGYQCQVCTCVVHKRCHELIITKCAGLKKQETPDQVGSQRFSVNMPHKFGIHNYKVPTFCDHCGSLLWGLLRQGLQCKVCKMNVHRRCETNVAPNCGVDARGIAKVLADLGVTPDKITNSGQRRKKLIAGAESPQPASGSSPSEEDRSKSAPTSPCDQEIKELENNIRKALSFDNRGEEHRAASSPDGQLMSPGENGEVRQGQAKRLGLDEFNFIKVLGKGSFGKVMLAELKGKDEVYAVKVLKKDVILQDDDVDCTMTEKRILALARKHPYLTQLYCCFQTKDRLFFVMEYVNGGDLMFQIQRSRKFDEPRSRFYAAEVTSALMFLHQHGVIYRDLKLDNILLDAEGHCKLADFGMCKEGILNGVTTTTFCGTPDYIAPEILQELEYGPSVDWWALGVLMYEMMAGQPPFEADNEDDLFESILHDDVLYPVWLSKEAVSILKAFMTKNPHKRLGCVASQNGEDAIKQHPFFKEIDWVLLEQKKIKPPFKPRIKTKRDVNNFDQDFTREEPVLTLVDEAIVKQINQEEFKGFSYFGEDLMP
# [6] = biological target: T3, Phosphorylase b kinase gamma catalytic chain, liver/testis isoform (Homo sapiens) (UniProt P15735); conditions: at 10 µM
# T3 sequence (whole entry): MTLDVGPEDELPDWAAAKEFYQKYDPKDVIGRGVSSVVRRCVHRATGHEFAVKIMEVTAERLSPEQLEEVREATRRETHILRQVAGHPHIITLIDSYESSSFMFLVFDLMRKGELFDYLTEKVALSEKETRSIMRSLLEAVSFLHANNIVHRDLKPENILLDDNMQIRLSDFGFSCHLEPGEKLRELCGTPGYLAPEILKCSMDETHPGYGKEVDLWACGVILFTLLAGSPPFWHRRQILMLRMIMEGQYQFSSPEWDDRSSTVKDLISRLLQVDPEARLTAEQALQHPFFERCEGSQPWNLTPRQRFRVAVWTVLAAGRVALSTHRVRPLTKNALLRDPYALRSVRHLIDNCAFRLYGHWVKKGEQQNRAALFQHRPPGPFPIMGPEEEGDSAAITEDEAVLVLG
# [7] = biological target: STE20-like serine/threonine-protein kinase (Homo sapiens, UniProt Q9H2G2); experiment: Selectivity interaction (KinomeScan (DiscoverX)) EUB0000618a SLK; conditions: at 10 µM
# [8] = biological target: Phosphatidylinositol 4,5-bisphosphate 3-kinase catalytic subunit beta isoform (Homo sapiens) (UniProt P42338); experiment: Selectivity interaction (Ambit KINOMEscan and KiNATiv profiling in Jurkat cells) EUB0000090b PIK3CB; format: cell-based; conditions: at 1 µM
# Chain of Phosphatidylinositol 4,5-bisphosphate 3-kinase catalytic subunit beta isoform (Homo sapiens) (P42338 whole entry, looked up, canonical isoform): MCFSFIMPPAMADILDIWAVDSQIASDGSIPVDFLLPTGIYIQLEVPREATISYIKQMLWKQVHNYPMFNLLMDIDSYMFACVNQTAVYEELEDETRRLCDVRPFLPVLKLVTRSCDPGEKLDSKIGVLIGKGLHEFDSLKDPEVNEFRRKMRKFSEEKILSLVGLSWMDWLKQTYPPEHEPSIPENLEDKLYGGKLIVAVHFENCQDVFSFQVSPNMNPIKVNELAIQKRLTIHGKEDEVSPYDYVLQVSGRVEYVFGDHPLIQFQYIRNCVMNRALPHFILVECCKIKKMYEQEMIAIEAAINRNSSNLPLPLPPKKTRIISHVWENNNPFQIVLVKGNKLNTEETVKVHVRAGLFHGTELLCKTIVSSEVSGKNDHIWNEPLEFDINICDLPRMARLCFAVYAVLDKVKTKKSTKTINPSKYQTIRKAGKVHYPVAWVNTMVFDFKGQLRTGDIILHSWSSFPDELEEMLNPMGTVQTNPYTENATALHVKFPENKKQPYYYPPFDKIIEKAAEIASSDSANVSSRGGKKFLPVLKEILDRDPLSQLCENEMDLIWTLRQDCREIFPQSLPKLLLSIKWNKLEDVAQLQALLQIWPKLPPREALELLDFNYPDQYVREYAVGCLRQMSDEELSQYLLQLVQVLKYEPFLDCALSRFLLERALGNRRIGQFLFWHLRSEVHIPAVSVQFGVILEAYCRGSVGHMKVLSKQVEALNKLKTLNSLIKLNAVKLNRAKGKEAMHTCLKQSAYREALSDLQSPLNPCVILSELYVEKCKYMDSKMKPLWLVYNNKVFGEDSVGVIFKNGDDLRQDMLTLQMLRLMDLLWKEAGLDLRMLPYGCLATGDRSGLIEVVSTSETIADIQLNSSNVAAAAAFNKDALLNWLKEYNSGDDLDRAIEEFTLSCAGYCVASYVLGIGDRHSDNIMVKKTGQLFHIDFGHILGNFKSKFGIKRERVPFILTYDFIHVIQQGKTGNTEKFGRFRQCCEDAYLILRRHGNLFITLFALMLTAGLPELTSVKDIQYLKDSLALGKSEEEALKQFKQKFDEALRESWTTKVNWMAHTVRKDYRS
# Chain of Tyrosine-protein kinase receptor UFO (Homo sapiens) (P30530 whole entry): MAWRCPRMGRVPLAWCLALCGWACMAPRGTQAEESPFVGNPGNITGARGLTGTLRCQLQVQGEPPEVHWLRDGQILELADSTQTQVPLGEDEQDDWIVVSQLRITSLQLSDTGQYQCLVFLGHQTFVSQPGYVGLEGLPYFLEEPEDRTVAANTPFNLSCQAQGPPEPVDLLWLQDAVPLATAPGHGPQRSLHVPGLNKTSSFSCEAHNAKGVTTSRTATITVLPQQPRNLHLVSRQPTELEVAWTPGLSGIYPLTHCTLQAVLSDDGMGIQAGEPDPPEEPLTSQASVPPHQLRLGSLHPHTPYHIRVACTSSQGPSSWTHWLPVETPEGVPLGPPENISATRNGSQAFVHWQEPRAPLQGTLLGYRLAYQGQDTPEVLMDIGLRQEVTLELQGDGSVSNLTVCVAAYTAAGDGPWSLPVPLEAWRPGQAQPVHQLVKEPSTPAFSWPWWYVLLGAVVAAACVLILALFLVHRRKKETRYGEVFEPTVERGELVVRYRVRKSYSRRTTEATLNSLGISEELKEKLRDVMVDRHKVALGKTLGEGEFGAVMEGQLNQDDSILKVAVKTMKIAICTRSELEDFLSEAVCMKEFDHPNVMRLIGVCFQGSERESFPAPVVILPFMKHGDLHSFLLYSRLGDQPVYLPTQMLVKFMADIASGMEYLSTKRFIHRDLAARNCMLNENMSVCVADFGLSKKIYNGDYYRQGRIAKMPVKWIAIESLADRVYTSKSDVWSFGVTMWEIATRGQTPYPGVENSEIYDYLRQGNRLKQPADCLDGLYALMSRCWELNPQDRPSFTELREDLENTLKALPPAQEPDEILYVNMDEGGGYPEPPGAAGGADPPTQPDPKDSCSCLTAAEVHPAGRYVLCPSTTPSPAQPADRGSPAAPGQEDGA
# Chain of Eukaryotic translation initiation factor 2-alpha kinase 1 (Homo sapiens) (Q9BQI3 whole entry): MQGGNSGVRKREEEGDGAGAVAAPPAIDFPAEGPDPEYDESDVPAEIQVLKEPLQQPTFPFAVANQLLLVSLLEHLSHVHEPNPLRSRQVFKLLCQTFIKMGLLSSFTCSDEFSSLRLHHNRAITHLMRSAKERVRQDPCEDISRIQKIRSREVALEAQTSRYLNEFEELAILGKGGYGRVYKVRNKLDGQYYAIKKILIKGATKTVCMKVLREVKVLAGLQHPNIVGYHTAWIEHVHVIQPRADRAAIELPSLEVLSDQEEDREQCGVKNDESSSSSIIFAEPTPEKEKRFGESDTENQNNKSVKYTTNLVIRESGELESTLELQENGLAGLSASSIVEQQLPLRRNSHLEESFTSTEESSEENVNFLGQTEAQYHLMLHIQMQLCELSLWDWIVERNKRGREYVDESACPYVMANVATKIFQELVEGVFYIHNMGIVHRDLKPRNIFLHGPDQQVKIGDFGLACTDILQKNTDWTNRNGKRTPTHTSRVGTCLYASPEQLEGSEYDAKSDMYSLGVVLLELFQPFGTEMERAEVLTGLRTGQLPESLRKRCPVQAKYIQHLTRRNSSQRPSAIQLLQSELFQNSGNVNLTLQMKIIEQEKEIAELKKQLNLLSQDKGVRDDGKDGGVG
# Chain of STE20-like serine/threonine-protein kinase (Q9H2G2 whole entry, looked up, canonical isoform): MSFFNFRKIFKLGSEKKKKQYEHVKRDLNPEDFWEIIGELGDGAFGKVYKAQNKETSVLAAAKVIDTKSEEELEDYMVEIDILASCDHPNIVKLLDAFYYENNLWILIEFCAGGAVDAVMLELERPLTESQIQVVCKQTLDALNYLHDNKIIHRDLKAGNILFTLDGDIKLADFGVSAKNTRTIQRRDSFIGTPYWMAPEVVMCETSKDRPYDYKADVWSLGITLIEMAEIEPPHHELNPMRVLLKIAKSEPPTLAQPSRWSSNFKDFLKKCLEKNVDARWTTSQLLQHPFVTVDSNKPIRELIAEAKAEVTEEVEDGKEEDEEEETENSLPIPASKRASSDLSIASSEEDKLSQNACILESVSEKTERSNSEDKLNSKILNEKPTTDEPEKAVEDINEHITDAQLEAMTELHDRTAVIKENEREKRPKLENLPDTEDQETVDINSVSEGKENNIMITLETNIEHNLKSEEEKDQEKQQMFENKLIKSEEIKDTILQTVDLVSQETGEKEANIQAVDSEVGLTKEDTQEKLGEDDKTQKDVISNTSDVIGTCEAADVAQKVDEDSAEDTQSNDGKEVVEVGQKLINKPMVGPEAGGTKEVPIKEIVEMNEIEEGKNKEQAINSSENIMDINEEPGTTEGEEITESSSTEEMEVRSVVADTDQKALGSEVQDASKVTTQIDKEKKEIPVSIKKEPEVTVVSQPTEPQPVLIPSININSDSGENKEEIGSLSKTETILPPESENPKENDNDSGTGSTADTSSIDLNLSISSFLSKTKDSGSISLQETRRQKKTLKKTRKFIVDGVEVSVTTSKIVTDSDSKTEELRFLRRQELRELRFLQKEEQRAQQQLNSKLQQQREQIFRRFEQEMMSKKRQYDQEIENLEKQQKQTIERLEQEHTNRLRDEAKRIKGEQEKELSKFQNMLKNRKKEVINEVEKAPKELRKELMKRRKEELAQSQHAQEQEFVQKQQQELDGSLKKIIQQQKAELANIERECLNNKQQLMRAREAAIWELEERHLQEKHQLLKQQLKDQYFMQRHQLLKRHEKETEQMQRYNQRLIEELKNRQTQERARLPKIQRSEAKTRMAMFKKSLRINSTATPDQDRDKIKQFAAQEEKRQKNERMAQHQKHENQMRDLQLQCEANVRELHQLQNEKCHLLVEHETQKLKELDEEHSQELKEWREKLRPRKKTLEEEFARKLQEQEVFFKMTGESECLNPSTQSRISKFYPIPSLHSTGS
compound,measurement,setting,value
CC(C)(O)[C@H](F)CN1Cc2cc(NC(=O)c3cnn4cccnc34)c(N3CCOCC3)cc2C1=O,dTM,[1],0.5 K
COc1cc(N(C)c2ccnc3ccc(C(F)(F)F)cc23)cc(OC)c1OC,% binding,[2],74%
C=CC(=O)Nc1cccc(C(=O)Nc2ccc(Nc3cc(-c4[nH]c(SC)nc4C)ccn3)cc2)c1,% of control,[3]; at 1 µM,99%
same,% of control,[3]; at 5 µM,76%
CCC(=O)N1CC[C@H](Nc2ncnc3c2CN(c2cnc(OC)c(C(F)(F)F)c2)CC3)C1 [LENIOLISIB],pIC50,[4],< 5.04
CC(=O)Nc1cccc(-n2c(=O)n(C3CC3)c(=O)c3c(Nc4ccc(I)cc4F)n(C)c(=O)c(C)c32)c1,% of control,[5],103%
Cc1cc([C@@H](C)Nc2ccccc2C(=O)O)c2nc(N3CCOCC3)cc(=O)n2c1 [AZD-6482],% of control,[6],100%
O[C@H]1CC[C@H](Nc2ncc3nc(Nc4c(F)cc(F)cc4F)n([C@H]4CCOC4)c3n2)CC1,% of control,[7],88%
CN(C)C/C=C/C(=O)Nc1ccc(C(=O)N2CCCC(Nc3ncc(Cl)c(-c4c[nH]c5ccccc45)n3)C2)cc1 (centres undefined),% of control,[8],100%

# From ChEMBL document CHEMBL5465560, “Selectivity Literature for EUbOPEN Chemogenomic Library” (2024)
